“And” between values parts separate entries of the source, which are not always exact repeats. Identical values can stand only once. Counter-ions that a name gives are not always drawn.
Tests used:
[1] = system: MRSA ATCC-B AA-1708; experiment: MIC, agar dilution, MRSA ATCC-BAA-1708 (mupA positive); type: cell-based; conditions: Staphylococcus aureus; MRSA ATCC-BAA-1708, mupA positive (mupirocin resistance); read-out: MIC
[2] = system: MSSE ATCC 12228; experiment: MIC, agar dilution, MSSE ATCC 12228; type: cell-based, S. epidermidis; conditions: Staphylococcus epidermidis, ATCC12228; MSSE ATCC 12228; read-out: MIC
[3] = system: MSSA ATCC 29213; experiment: MIC, agar dilution, MSSA ATCC 29213; type: cell-based, S. aureus; conditions: Staphylococcus aureus; MSSA ATCC 29213; read-out: MIC
[4] = system: S.h ATCC 35982; experiment: MIC, agar dilution, S.h ATCC 35982; type: cell-based; conditions: Staphylococcus hominis, ATCC35982; S. hominis ATCC 35982; read-out: MIC
[5] = system: MRSE 16-5; experiment: MIC, agar dilution, MRSE 16-5; type: cell-based, S. epidermidis; conditions: Staphylococcus epidermidis; MRSE 16-5; read-out: MIC
[6] = system: MRSA ATCC 43300; experiment: MIC, agar dilution, MRSA ATCC 43300; type: cell-based; conditions: Staphylococcus aureus; MRSA ATCC 43300; read-out: MIC
[7] = system: MRSE 13-3; experiment: MIC, agar dilution, MRSE 13-3; type: cell-based, S. epidermidis; conditions: Staphylococcus epidermidis; MRSE 13-3; read-out: MIC
[8] = system: MSSA 15; experiment: MIC, agar dilution, MSSA 15 (clinical isolate); type: cell-based, S. aureus; conditions: Staphylococcus aureus; MSSA 15, isolated from patients in China; read-out: MIC
[9] = system: MSSA 16-1; experiment: MIC, agar dilution, MSSA 16-1 (clinical isolate); type: cell-based, S. aureus; conditions: Staphylococcus aureus; MSSA 16-1, isolated from patients in China; read-out: MIC
[10] = system: S.s ATCC 15305; experiment: MIC, agar dilution, S.s ATCC 15305; type: cell-based; conditions: Staphylococcus saprophyticus, ATCC15305; S. saprophyticus ATCC 15305; read-out: MIC
[11] = system: VISA ATCC 700698; experiment: MIC, agar dilution, VISA ATCC 700698; type: cell-based; conditions: Staphylococcus aureus; VISA ATCC 700698; read-out: MIC
[12] = system: MSSE 16-5; experiment: MIC, agar dilution, MSSE 16-5 (clinical isolate); type: cell-based, S. epidermidis; conditions: Staphylococcus epidermidis; MSSE 16-5, isolated from patients in China; read-out: MIC
[13] = system: MRSA 13-18; experiment: MIC, agar dilution, MRSA 13-18; type: cell-based; conditions: Staphylococcus aureus; MRSA 13-18; read-out: MIC
[14] = system: MRSA 16-34; experiment: MIC, agar dilution, MRSA 16-34; type: cell-based; conditions: Staphylococcus aureus; MRSA 16-34; read-out: MIC
[15] = system: MRSA ATCC -BAA-976; experiment: MIC, agar dilution, MRSA ATCC-BAA-976 (clindamycin-resistant); type: cell-based; conditions: Staphylococcus aureus; MRSA ATCC-BAA-976, clindamycin-resistant S. aureus; read-out: MIC
[16] = system: VISA ATCC 700699; experiment: MIC, agar dilution, VISA ATCC 700699; type: cell-based; conditions: Staphylococcus aureus; VISA ATCC 700699; read-out: MIC
[17] = system: MRSA 13-23; experiment: MIC, agar dilution, MRSA 13-23; type: cell-based; conditions: Staphylococcus aureus; MRSA 13-23; read-out: MIC

COc1ccc2c(c[n+]3ccc4cc5c(c6c(Cc7ccccc7)cc2c3c46)OCO5)c1O (as salt: chloride) [13a, 1,2-Methylenedioxy-8-hydroxy-9-methoxy-13-benzylcycloberberine chloride]
melting point: 248 to 250 °C

COc1ccc2c(c[n+]3ccc4cc5c(c6c(Cc7ccc(F)cc7)cc2c3c46)OCO5)c1O (as salt: chloride) [13b, 1,2-Methylenedioxy-8-hydroxy-9-methoxy-13-p-fluorobenzylcycloberberine chloride]
melting point: 203 to 205 °C

COc1ccc2c(c[n+]3ccc4cc5c(c6c(Cc7ccc(F)cc7F)cc2c3c46)OCO5)c1O (as salt: chloride) [13c, 1,2-Methylenedioxy-8-hydroxy-9-methoxy-13-2′,4′-difluorobenzylcycloberberine chloride]
melting point: 218 to 220 °C

COc1ccc2c(c[n+]3ccc4cc5c(c6c(Cc7c(F)cccc7F)cc2c3c46)OCO5)c1O (as salt: chloride) [13d, 1,2-Methylenedioxy-8-hydroxy-9-methoxy-13-2′,6′-difluorobenzylcycloberberine chloride]
melting point: 214 to 216 °C

COc1ccc2c(c[n+]3ccc4cc5c(c6c(Cc7ccc(Cl)cc7)cc2c3c46)OCO5)c1O (as salt: chloride) [13e, 1,2-Methylenedioxy-8-hydroxy-9-methoxy-13-p-chlorobenzylcycloberberine chloride]
melting point: 199 to 201 °C

COc1ccc2c(c[n+]3ccc4cc5c(c6c(Cc7ccc(Br)cc7)cc2c3c46)OCO5)c1O (as salt: chloride) [13f, 1,2-Methylenedioxy-8-hydroxy-9-methoxy-13-p-bromobenzylcycloberberine chloride]
melting point: 207 to 209 °C

COc1ccc2c(c[n+]3ccc4cc5c(c6c(Cc7ccccc7C)cc2c3c46)OCO5)c1O (as salt: chloride) [13g, 1,2-Methylenedioxy-8-hydroxy-9-methoxy-13-o-methylbenzylcycloberberine chloride]
melting point: 203 to 205 °C

COc1ccc2c(c[n+]3ccc4cc5c(c6c(Cc7cccc(C)c7)cc2c3c46)OCO5)c1O (as salt: chloride) [13h, 1,2-Methylenedioxy-8-hydroxy-9-methoxy-13-m-methylbenzylcycloberberine chloride]
melting point: 203 to 205 °C

COc1ccc2c(c[n+]3ccc4cc5c(c6c(Cc7ccc(C)cc7)cc2c3c46)OCO5)c1O (as salt: chloride) [13i, 1,2-Methylenedioxy-8-hydroxy-9-methoxy-13-p-methylbenzylcycloberberine chloride]
melting point: 229 to 231 °C

COc1ccc2c(c[n+]3ccc4cc5c(c6c(Cc7cc(C)cc(C)c7)cc2c3c46)OCO5)c1O (as salt: chloride) [13j, 1,2-Methylenedioxy-8-hydroxy-9-methoxy-13-3′,5′-dimethylbenzylcycloberberine chloride]
melting point: 218 to 220 °C

COc1ccc2c(c[n+]3ccc4cc5c(c6c(Cc7ccc(C(C)(C)C)cc7)cc2c3c46)OCO5)c1O (as salt: chloride) [13k, 1,2-Methylenedioxy-8-hydroxy-9-methoxy-13-p-tert-butylmethylbenzylcyclo berberine chloride]
melting point: 212 to 214 °C

COc1ccc2c(c[n+]3ccc4cc5c(c6c(Cc7ccc(OC(F)(F)F)cc7)cc2c3c46)OCO5)c1O (as salt: chloride) [13l, 1,2-Methylenedioxy-8-hydroxy-9-methoxy-13-p-trifluoromethoxybenzylcyclo berberine chloride]
melting point: 185 to 187 °C

COc1ccc2c(c[n+]3ccc4cc5c(c6c(Cc7ccccc7C#N)cc2c3c46)OCO5)c1O (as salt: chloride) [13m, 1,2-Methylenedioxy-8-hydroxy-9-methoxy-13-o-cyanbenzylcycloberberine chloride]
melting point: 209 to 211 °C

COc1ccc2c(c[n+]3ccc4cc5c(c6c(Cc7cccc(C#N)c7)cc2c3c46)OCO5)c1O (as salt: chloride) [13n, 1,2-Methylenedioxy-8-hydroxy-9-dimethoxy-13-m-cyanbenzylcycloberberine chloride]
melting point: 189 to 191 °C

COc1ccc2c(c[n+]3ccc4cc5c(c6c(Cc7ccc(C#N)cc7)cc2c3c46)OCO5)c1O (as salt: chloride) [13o, 1,2-Methylenedioxy-8-hydroxy-9-dimethoxy-13-p-cyanbenzylcycloberberine chloride]
melting point: 197 to 199 °C

COc1ccc2c(c[n+]3ccc4cc5c(c6c(Cc7ccccc7[N+](=O)[O-])cc2c3c46)OCO5)c1O (as salt: chloride) [13p, 1,2-Methylenedioxy-8-hydroxy-9-methoxy-13-o-nitrobenzylcycloberberine chloride]
melting point: 199 to 201 °C

COc1ccc2c(c[n+]3ccc4cc5c(c6c(Cc7cccc([N+](=O)[O-])c7)cc2c3c46)OCO5)c1O (as salt: chloride) [13q, 1,2-Methylenedioxy-8-hydroxy-9-methoxy-13-m-nitrobenzylcycloberberine chloride]
melting point: 186 to 188 °C

COc1ccc2c(c[n+]3ccc4cc5c(c6c(Cc7ccc([N+](=O)[O-])cc7)cc2c3c46)OCO5)c1O (as salt: chloride) [13r, 1,2-Methylenedioxy-8-hydroxy-9-methoxy-13-p-nitrobenzylcycloberberine chloride]
melting point: 186 to 188 °C

COc1ccc2c(c[n+]3ccc4cc5c(c6c(C(C)c7ccccc7)cc2c3c46)OCO5)c1O (stereo not shown) (as salt: chloride) [13s, 1,2-Methylenedioxy-8-hydroxy-9-methoxy-13-1′-phenylethylcycloberberine chloride]
melting point: 213 to 215 °C

COC(=O)C(c1ccccc1)c1cc2c3ccc(OC)c(O)c3c[n+]3ccc4cc5c(c1c4c23)OCO5 (stereo not shown) (as salt: chloride) [13t, 1,2-Methylenedioxy-8-hydroxy-9-methoxy-13-2′-methoxy-2′-oxo-1′-phenylethylcycloberberine chloride]
melting point: 173 to 175 °C

CCCc1cc2c3ccc(OC)c(O)c3c[n+]3ccc4cc5c(c1c4c23)OCO5 (as salt: chloride) [15b, 1,2-Methylenedioxy-8-hydroxy-9-methoxy-13-propylcycloberberine chloride]
melting point: 165 to 167 °C

CCCCc1cc2c3ccc(OC)c(O)c3c[n+]3ccc4cc5c(c1c4c23)OCO5 (as salt: chloride) [15c, 1,2-Methylenedioxy-8-hydroxy-9-methoxy-13-butylcycloberberine chloride]
melting point: 162 to 164 °C

COc1ccc2c(c[n+]3c4c2ccc2c(OC)c(OC)cc(c24)CC3)c1O (as salt: chloride) [compound 6, 1,2-Dimethoxy-8-hydroxy-9-methoxycycloberberine Chloride]
melting point: 176 to 178 °C and 180 to 182 °C

COc1ccc2c(c[n+]3c4c2ccc2c(O)c(O)cc(c24)CC3)c1O (as salt: chloride) [compound 10, 1,2,8-Trihydroxy-9-methoxycycloberberine Chloride]
melting point: 191 to 193 °C

COc1ccc2c(c[n+]3ccc4cc5c(c6c(Cc7ccc(F)cc7)cc2c3c46)OCO5)c1O [13b, 1,2-Methylenedioxy-8-hydroxy-9-methoxy-13-p-fluorobenzylcycloberberine chloride]
MIC [1]: > 64 µg/mL | MIC [2]: > 64 µg/mL | MIC [3]: > 64 µg/mL | MIC [4]: > 64 µg/mL | MIC [5]: > 64 µg/mL | MIC [6]: > 64 µg/mL | MIC [7]: > 64 µg/mL | MIC [8]: > 64 µg/mL | MIC [9]: > 64 µg/mL | MIC [10]: > 64 µg/mL | MIC [11]: > 64 µg/mL | MIC [12]: > 64 µg/mL | MIC [13]: > 64 µg/mL | MIC [14]: > 64 µg/mL | MIC [15]: > 64 µg/mL | MIC [16]: > 64 µg/mL | MIC [17]: > 64 µg/mL

COc1ccc2c(c[n+]3ccc4cc5c(c6c(Cc7ccc(F)cc7F)cc2c3c46)OCO5)c1O [13c, 1,2-Methylenedioxy-8-hydroxy-9-methoxy-13-2′,4′-difluorobenzylcycloberberine chloride]
MIC [1]: 4 µg/mL | MIC [2]: 8 µg/mL | MIC [3]: 8 µg/mL | MIC [4]: 8 µg/mL | MIC [5]: 8 µg/mL | MIC [6]: 8 µg/mL | MIC [7]: 8 µg/mL | MIC [8]: 8 µg/mL | MIC [9]: 8 µg/mL | MIC [10]: 16 µg/mL | MIC [11]: 8 µg/mL | MIC [12]: 8 µg/mL | MIC [13]: 16 µg/mL | MIC [14]: 8 µg/mL | MIC [15]: 8 µg/mL | MIC [16]: 8 µg/mL | MIC [17]: 8 µg/mL
